Where “and” joins values, the source holds several entries; their conditions need not be identical. Equal values may be shown once.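 Method: 48-hour compound exposure of cells in 96-well plates, five concentrations, linear interpolation of endpoints. The concentration for 50% growth inhibition is given as GI50. TGI marks complete inhibition of growth.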
tested on: 786-0 renal; experiment: growth of human tumour cells (NCI), 48 h

| SMILES | GI50 | TGI [µM] |
| --- | --- | --- |
| CC(=O)c1c(-c2ccc(Cl)cc2)c(C#N)c(=S)n(C2OC(CO)C(O)C(O)C2O)c1-c1ccccc1 (stereo unspecified) | 48.8 µM and > 100 µM | > 100 |
| COC(=O)c1ccc2cc(O)c(O)cc2c1 |  | > 100 |
| CN(C)C=Nc1ccc2c3c(cccc13)-c1ccccc1-2 |  | 26 |
| COC(=O)C1C(O)C(C)C(O)C(C)(O)C=C(C)C2=C3C(=C(C)C(=O)c4c(O)c(c(C)c(OC(C)=O)c43)NC(=O)C(C)=C/C=C\C(C)(O)C(O)C(C)C1O)OCO2 (stereo unspecified) |  | > 100 |

tested on: A498 renal; experiment: growth of human tumour cells (NCI), 48 h

| SMILES | GI50 | TGI [µM] |
| --- | --- | --- |
| CC(=O)c1c(-c2ccc(Cl)cc2)c(C#N)c(=S)n(C2OC(CO)C(O)C(O)C2O)c1-c1ccccc1 (stereo unspecified) | > 100 µM and 49.7 µM | > 100 |
| COC(=O)c1ccc2cc(O)c(O)cc2c1 |  | > 100 |
| CN(C)C=Nc1ccc2c3c(cccc13)-c1ccccc1-2 |  | 21.7 |
| COC(=O)C1C(O)C(C)C(O)C(C)(O)C=C(C)C2=C3C(=C(C)C(=O)c4c(O)c(c(C)c(OC(C)=O)c43)NC(=O)C(C)=C/C=C\C(C)(O)C(O)C(C)C1O)OCO2 (stereo unspecified) |  | > 100 |

tested on: A549 NSCLC; experiment: growth of human tumour cells (NCI), 48 h

| SMILES | GI50 | TGI [µM] |
| --- | --- | --- |
| CC(=O)c1c(-c2ccc(Cl)cc2)c(C#N)c(=S)n(C2OC(CO)C(O)C(O)C2O)c1-c1ccccc1 (stereo unspecified) | 46.7 µM and > 100 µM | > 100 |
| COC(=O)c1ccc2cc(O)c(O)cc2c1 |  | > 100 |
| CN(C)C=Nc1ccc2c3c(cccc13)-c1ccccc1-2 |  | 23.7 |
| COC(=O)C1C(O)C(C)C(O)C(C)(O)C=C(C)C2=C3C(=C(C)C(=O)c4c(O)c(c(C)c(OC(C)=O)c43)NC(=O)C(C)=C/C=C\C(C)(O)C(O)C(C)C1O)OCO2 (stereo unspecified) |  | > 100 |

tested on: ACHN renal; experiment: growth of human tumour cells (NCI), 48 h

| SMILES | TGI [µM] |
| --- | --- |
| CC(=O)c1c(-c2ccc(Cl)cc2)c(C#N)c(=S)n(C2OC(CO)C(O)C(O)C2O)c1-c1ccccc1 (stereo unspecified) | > 100 |
| COC(=O)c1ccc2cc(O)c(O)cc2c1 | > 100 |
| CN(C)C=Nc1ccc2c3c(cccc13)-c1ccccc1-2 | 31.6 |
| COC(=O)C1C(O)C(C)C(O)C(C)(O)C=C(C)C2=C3C(=C(C)C(=O)c4c(O)c(c(C)c(OC(C)=O)c43)NC(=O)C(C)=C/C=C\C(C)(O)C(O)C(C)C1O)OCO2 (stereo unspecified) | > 100 |

tested on: BT-549 breast; experiment: growth of human tumour cells (NCI), 48 h

| SMILES | TGI [µM] |
| --- | --- |
| CC(=O)c1c(-c2ccc(Cl)cc2)c(C#N)c(=S)n(C2OC(CO)C(O)C(O)C2O)c1-c1ccccc1 (stereo unspecified) | > 100 |
| COC(=O)c1ccc2cc(O)c(O)cc2c1 | > 90.6 |
| CN(C)C=Nc1ccc2c3c(cccc13)-c1ccccc1-2 | 32 |
| COC(=O)C1C(O)C(C)C(O)C(C)(O)C=C(C)C2=C3C(=C(C)C(=O)c4c(O)c(c(C)c(OC(C)=O)c43)NC(=O)C(C)=C/C=C\C(C)(O)C(O)C(C)C1O)OCO2 (stereo unspecified) | > 100 |

tested on: CAKI-1 renal; experiment: growth of human tumour cells (NCI), 48 h

| SMILES | TGI [µM] |
| --- | --- |
| CC(=O)c1c(-c2ccc(Cl)cc2)c(C#N)c(=S)n(C2OC(CO)C(O)C(O)C2O)c1-c1ccccc1 (stereo unspecified) | > 100 |
| COC(=O)c1ccc2cc(O)c(O)cc2c1 | > 100 |

tested on: CCRF-CEM leukemia; experiment: growth of human tumour cells (NCI), 48 h

| SMILES | GI50 | TGI |
| --- | --- | --- |
| CC(=O)c1c(-c2ccc(Cl)cc2)c(C#N)c(=S)n(C2OC(CO)C(O)C(O)C2O)c1-c1ccccc1 (stereo unspecified) | 13.1 µM and 55.4 µM | 99.5 µM and > 100 µM |
| COC(=O)c1ccc2cc(O)c(O)cc2c1 |  | > 60.4 µM |
| CN(C)C=Nc1ccc2c3c(cccc13)-c1ccccc1-2 |  | 17.2 µM |
| COC(=O)C1C(O)C(C)C(O)C(C)(O)C=C(C)C2=C3C(=C(C)C(=O)c4c(O)c(c(C)c(OC(C)=O)c43)NC(=O)C(C)=C/C=C\C(C)(O)C(O)C(C)C1O)OCO2 (stereo unspecified) |  | > 100 µM |

tested on: COLO 205 colon; experiment: growth of human tumour cells (NCI), 48 h

| SMILES | GI50 | TGI [µM] |
| --- | --- | --- |
| CC(=O)c1c(-c2ccc(Cl)cc2)c(C#N)c(=S)n(C2OC(CO)C(O)C(O)C2O)c1-c1ccccc1 (stereo unspecified) | 47.3 µM and > 100 µM | > 100 |
| COC(=O)c1ccc2cc(O)c(O)cc2c1 |  | > 100 |
| CN(C)C=Nc1ccc2c3c(cccc13)-c1ccccc1-2 |  | 30.9 |
| COC(=O)C1C(O)C(C)C(O)C(C)(O)C=C(C)C2=C3C(=C(C)C(=O)c4c(O)c(c(C)c(OC(C)=O)c43)NC(=O)C(C)=C/C=C\C(C)(O)C(O)C(C)C1O)OCO2 (stereo unspecified) |  | 69.7 |

tested on: DU-145 prostate; experiment: growth of human tumour cells (NCI), 48 h

| SMILES | TGI [µM] |
| --- | --- |
| CC(=O)c1c(-c2ccc(Cl)cc2)c(C#N)c(=S)n(C2OC(CO)C(O)C(O)C2O)c1-c1ccccc1 (stereo unspecified) | > 100 |
| COC(=O)c1ccc2cc(O)c(O)cc2c1 | > 100 |
| CN(C)C=Nc1ccc2c3c(cccc13)-c1ccccc1-2 | 25.7 |
| COC(=O)C1C(O)C(C)C(O)C(C)(O)C=C(C)C2=C3C(=C(C)C(=O)c4c(O)c(c(C)c(OC(C)=O)c43)NC(=O)C(C)=C/C=C\C(C)(O)C(O)C(C)C1O)OCO2 (stereo unspecified) | > 100 |

tested on: EKVX NSCLC; experiment: growth of human tumour cells (NCI), 48 h

| SMILES | GI50 | TGI [µM] |
| --- | --- | --- |
| CC(=O)c1c(-c2ccc(Cl)cc2)c(C#N)c(=S)n(C2OC(CO)C(O)C(O)C2O)c1-c1ccccc1 (stereo unspecified) | 99.7 µM and 22.2 µM | > 100 |
| COC(=O)c1ccc2cc(O)c(O)cc2c1 |  | > 100 |
| CN(C)C=Nc1ccc2c3c(cccc13)-c1ccccc1-2 |  | 22.4 |
| COC(=O)C1C(O)C(C)C(O)C(C)(O)C=C(C)C2=C3C(=C(C)C(=O)c4c(O)c(c(C)c(OC(C)=O)c43)NC(=O)C(C)=C/C=C\C(C)(O)C(O)C(C)C1O)OCO2 (stereo unspecified) |  | > 100 |

tested on: HCC-2998 colon; experiment: growth of human tumour cells (NCI), 48 h

| SMILES | TGI [µM] |
| --- | --- |
| CC(=O)c1c(-c2ccc(Cl)cc2)c(C#N)c(=S)n(C2OC(CO)C(O)C(O)C2O)c1-c1ccccc1 (stereo unspecified) | > 100 |
| COC(=O)c1ccc2cc(O)c(O)cc2c1 | > 100 |
| COC(=O)C1C(O)C(C)C(O)C(C)(O)C=C(C)C2=C3C(=C(C)C(=O)c4c(O)c(c(C)c(OC(C)=O)c43)NC(=O)C(C)=C/C=C\C(C)(O)C(O)C(C)C1O)OCO2 (stereo unspecified) | > 100 |

tested on: HCT-116 colon; experiment: growth of human tumour cells (NCI), 48 h

| SMILES | GI50 | TGI [µM] |
| --- | --- | --- |
| CC(=O)c1c(-c2ccc(Cl)cc2)c(C#N)c(=S)n(C2OC(CO)C(O)C(O)C2O)c1-c1ccccc1 (stereo unspecified) | 17.4 µM and > 100 µM | > 100 |
| COC(=O)c1ccc2cc(O)c(O)cc2c1 |  | > 100 |
| CN(C)C=Nc1ccc2c3c(cccc13)-c1ccccc1-2 |  | 28.7 |
| COC(=O)C1C(O)C(C)C(O)C(C)(O)C=C(C)C2=C3C(=C(C)C(=O)c4c(O)c(c(C)c(OC(C)=O)c43)NC(=O)C(C)=C/C=C\C(C)(O)C(O)C(C)C1O)OCO2 (stereo unspecified) |  | > 100 |

tested on: HCT-15 colon; experiment: growth of human tumour cells (NCI), 48 h

| SMILES | TGI [µM] |
| --- | --- |
| CC(=O)c1c(-c2ccc(Cl)cc2)c(C#N)c(=S)n(C2OC(CO)C(O)C(O)C2O)c1-c1ccccc1 (stereo unspecified) | > 100 |
| COC(=O)c1ccc2cc(O)c(O)cc2c1 | > 100 |
| CN(C)C=Nc1ccc2c3c(cccc13)-c1ccccc1-2 | 24.1 |
| COC(=O)C1C(O)C(C)C(O)C(C)(O)C=C(C)C2=C3C(=C(C)C(=O)c4c(O)c(c(C)c(OC(C)=O)c43)NC(=O)C(C)=C/C=C\C(C)(O)C(O)C(C)C1O)OCO2 (stereo unspecified) | > 100 |

tested on: HL-60(TB) leukemia; experiment: growth of human tumour cells (NCI), 48 h

| SMILES | GI50 | TGI [µM] |
| --- | --- | --- |
| CC(=O)c1c(-c2ccc(Cl)cc2)c(C#N)c(=S)n(C2OC(CO)C(O)C(O)C2O)c1-c1ccccc1 (stereo unspecified) | 30.9 µM and 62.2 µM | > 100 |
| COC(=O)c1ccc2cc(O)c(O)cc2c1 |  | > 100 |
| CN(C)C=Nc1ccc2c3c(cccc13)-c1ccccc1-2 |  | 23.2 |
| COC(=O)C1C(O)C(C)C(O)C(C)(O)C=C(C)C2=C3C(=C(C)C(=O)c4c(O)c(c(C)c(OC(C)=O)c43)NC(=O)C(C)=C/C=C\C(C)(O)C(O)C(C)C1O)OCO2 (stereo unspecified) |  | > 100 |

— PubChem BioAssay (NCI)
